Reference: patent US20110009387A1, “HISTONE H2AX (HH2AX) BIOMARKER FOR FTI SENSITIVITY” (priority 2007, published 2011)

Tests used:
sensitive cell lines = assay: Western blot of phospho-histone H2Ax induction; assay type: cell-based; conditions: 72 hours, 1000 nM
Method: (§1) The induction of phospho-histone H2Ax was analyzed by comparing the cellular expression levels of the phosphoprotein following exposure of cells to both DMSO (blank) and lonafarnib. The levels were evaluated by western blot. The quantity of induced phosphoprotein was determined qualitatively and by using densitometric analysis of bands on the blot.
(§2) Western blot protein analysis. Cells were lysed in RIPA buffer (50 mM Tris-HCl, 50 mM NaCl, 1% NP40, 0.5% Na-deoxycholate, 1 mM EDTA, 2.5 mM Na3VO4, 20 mM beta-glycerol phosphate, and complete protease inhibitor) and cleared by centrifugation. Protein concentration was determined using BCA reagent. Samples were separated by 14% SDS-PAGE, transferred to polyvinylidene difluoride (PVDF) membrane, immunoblotted and detected by chemiluminescence using the ECL detection reagents. Polyclonal antibodies used: Histone H2Ax and phos-Histone H2Ax (ser-139) (Cell Signaling Technology, Inc.; Danvers, Mass.). Densitometry was analyzed utilizing Quantity One software (Bio-Rad; Hercules, Calif.). Cells that were analyzed for inducation of phospho-H2Ax by western blot analysis were initially plated on plastic and then treated for 72 hours with 1000 nM of the FTI.

MCF7 = assay: Soft agar growth assay (colony area); assay type: cell-based, human; design: key to Cells designated sensitive (S) or resistant (R) to lonafarnib: sensitive (S); resistant (R); conditions: MCF7, breast
Method: (§3) Cells were grown in soft agar and the IC50 for lonafarnib was determined. Cells were designated sensitive (S) or resistant (R). The IC50 value was determined by comparing colony areas of the cell lines exposed to the various doses of FTI. IC50 values were calculated with the XLfit program (idbs; Guildford, United Kingdom).
(§4) Growth assays. Soft agar assays were performed in 6-well dishes by seeding 10,000-20,000 cells in each well. Cells were plated in top 0.35% low melting point agarose in DMEM:F12 with 10% fetal bovine serum over a bottom 0.6% agarose feeding layer. Cells were grown in the presence of lonafarnib for 14 days and colonies were stained with 1 mg/ml MIT (dimethylthiazol-diphenyl-terrazolium bromide) in PBS. The plates were scanned and the colony area was determined as the sum of the areas stained by MTT.

SKOV3 [1] = assay: Western blot of phospho-histone H2Ax induction; assay type: cell-based; conditions: 72 hours, 1000 nM FTI vs DMSO, densitometry
Method: as §1, §2

Colo205 [2] = assay: Western blot of phospho-histone H2Ax induction; assay type: cell-based; conditions: 72 hours, 1000 nM FTI vs DMSO
Method: as §1, §2

SNB19 [3] = assay: Western blot of phospho-histone H2Ax induction; assay type: cell-based; conditions: 72 hours, 1000 nM FTI vs DMSO, undetectable basal level
Method: as §1, §2

TOV112D [4] = assay: Western blot of phospho-histone H2Ax induction; assay type: cell-based; conditions: 72 hours, 1000 nM FTI vs DMSO, undetectable basal level
Method: as §1, §2

Panc1 [5] = assay: Western blot of phospho-histone H2Ax induction; assay type: cell-based; conditions: 72 hours, 1000 nM FTI vs DMSO
Method: as §1, §2

MDA-435 = assay: Western blot of phospho-histone H2Ax induction; assay type: cell-based; conditions: 72 hours, 1000 nM FTI vs DMSO, densitometry
Method: as §1, §2

LNCap [6] = assay: Western blot of phospho-histone H2Ax induction; assay type: cell-based; conditions: 72 hours, 1000 nM FTI vs DMSO, densitometry
Method: as §1, §2

AsPc1 [7] = assay: Western blot of phospho-histone H2Ax induction; assay type: cell-based; conditions: 72 hours, 1000 nM FTI vs DMSO, densitometry
Method: as §1, §2

SNB75 [8] = assay: Western blot of phospho-histone H2Ax induction; assay type: cell-based; conditions: 72 hours, 1000 nM FTI vs DMSO, densitometry
Method: as §1, §2

A2780 [9] = assay: Western blot of phospho-histone H2Ax induction; assay type: cell-based; conditions: 72 hours, 1000 nM FTI vs DMSO, undetectable basal level
Method: as §1, §2

MiaPaca [10] = assay: Western blot of phospho-histone H2Ax induction; assay type: cell-based; conditions: 72 hours, 1000 nM FTI vs DMSO, densitometry
Method: as §1, §2

DLD-1 [11] = assay: Western blot of phospho-histone H2Ax induction; assay type: cell-based; conditions: 72 hours, 1000 nM FTI vs DMSO, densitometry
Method: as §1, §2

HT29 [12] = assay: Western blot of phospho-histone H2Ax induction; assay type: cell-based; conditions: 72 hours, 1000 nM FTI vs DMSO, densitometry
Method: as §1, §2

DU145 [13] = assay: Western blot of phospho-histone H2Ax induction; assay type: cell-based; conditions: 72 hours, 1000 nM FTI vs DMSO, densitometry
Method: as §1, §2

T47D [14] = assay: Western blot of phospho-histone H2Ax induction; assay type: cell-based; conditions: 72 hours, 1000 nM FTI vs DMSO, densitometry
Method: as §1, §2

MCF-7 = assay: Western blot of phospho-histone H2Ax induction; assay type: cell-based, human; conditions: 72 hours, 1000 nM FTI vs DMSO, undetectable basal level
Method: as §1, §2

SKOV3 [15] = assay: Soft agar growth assay (colony area); assay type: cell-based; design: key to Cells designated sensitive (S) or resistant (R) to lonafarnib: sensitive (S); resistant (R); conditions: SKOV3, ovarian
Method: as §3, §4

Colo205 [16] = assay: Soft agar growth assay (colony area); assay type: cell-based; design: key to Cells designated sensitive (S) or resistant (R) to lonafarnib: sensitive (S); resistant (R); conditions: Colo205, colon
Method: as §3, §4

SNB19 [17] = assay: Soft agar growth assay (colony area); assay type: cell-based; design: key to Cells designated sensitive (S) or resistant (R) to lonafarnib: sensitive (S); resistant (R); conditions: SNB19, glioma
Method: as §3, §4

TOV112D [18] = assay: Soft agar growth assay (colony area); assay type: cell-based; design: key to Cells designated sensitive (S) or resistant (R) to lonafarnib: sensitive (S); resistant (R); conditions: ovarian
Method: as §3, §4

Panc1 [19] = assay: Soft agar growth assay (colony area); assay type: cell-based; design: key to Cells designated sensitive (S) or resistant (R) to lonafarnib: sensitive (S); resistant (R); conditions: Panc1, pancreas
Method: as §3, §4

LNCap [20] = assay: Soft agar growth assay (colony area); assay type: cell-based; design: key to Cells designated sensitive (S) or resistant (R) to lonafarnib: sensitive (S); resistant (R); conditions: prostate
Method: as §3, §4

AsPc1 [21] = assay: Soft agar growth assay (colony area); assay type: cell-based; design: key to Cells designated sensitive (S) or resistant (R) to lonafarnib: sensitive (S); resistant (R); conditions: AsPc1, pancreas
Method: as §3, §4

SNB75 [22] = assay: Soft agar growth assay (colony area); assay type: cell-based; design: key to Cells designated sensitive (S) or resistant (R) to lonafarnib: sensitive (S); resistant (R); conditions: SNB75, glioma
Method: as §3, §4

A2780 [23] = assay: Soft agar growth assay (colony area); assay type: cell-based; design: key to Cells designated sensitive (S) or resistant (R) to lonafarnib: sensitive (S); resistant (R); conditions: A2780, ovarian
Method: as §3, §4

MiaPaca [24] = assay: Soft agar growth assay (colony area); assay type: cell-based; design: key to Cells designated sensitive (S) or resistant (R) to lonafarnib: sensitive (S); resistant (R); conditions: pancreas
Method: as §3, §4

DLD-1 [25] = assay: Soft agar growth assay (colony area); assay type: cell-based; design: key to Cells designated sensitive (S) or resistant (R) to lonafarnib: sensitive (S); resistant (R); conditions: DLD-1, colon
Method: as §3, §4

HT29 [26] = assay: Soft agar growth assay (colony area); assay type: cell-based; design: key to Cells designated sensitive (S) or resistant (R) to lonafarnib: sensitive (S); resistant (R); conditions: HT29, colon
Method: as §3, §4

MDA435 = assay: Soft agar growth assay (colony area); assay type: cell-based; design: key to Cells designated sensitive (S) or resistant (R) to lonafarnib: sensitive (S); resistant (R); conditions: MDA435, breast
Method: as §3, §4

DU145 [27] = assay: Soft agar growth assay (colony area); assay type: cell-based; design: key to Cells designated sensitive (S) or resistant (R) to lonafarnib: sensitive (S); resistant (R); conditions: DU145, prostate
Method: as §3, §4

T47D [28] = assay: Soft agar growth assay (colony area); assay type: cell-based; design: key to Cells designated sensitive (S) or resistant (R) to lonafarnib: sensitive (S); resistant (R); conditions: breast
Method: as §3, §4

[29] = Homo sapiens, 336 h, 14 days, read-out: Lonafarnib IC50

NC(=O)N1CCC(CC(=O)N2CCC(C3c4ncc(Br)cc4CCc4cc(Cl)cc(Br)c43)CC2)CC1 (single isomer, unassigned) [inactive enantiomer of lonafarnib]
phosphorylation of histone-H2Ax upon treatment (sensitive cell lines): does not induce

NC(=O)N1CCC(CC(=O)N2CCC([C@H]3c4ncc(Br)cc4CCc4cc(Cl)cc(Br)c43)CC2)CC1 [Lonafarnib, lonafarnib]
IC50 (MCF7; [29]): 10 nM
Cells designated sensitive (S) or resistant (R) to lonafarnib (MCF7): (S)
induction of phospho-histone H2Ax (difference in OD values) (SKOV3 [1]): 1 fold
induction of phos-histone H2Ax upon treatment (Colo205 [2]): no detectable induction
phospho-histone H2Ax expression upon treatment (SNB19 [3]): induced to detectable levels
phospho-histone H2Ax expression upon treatment (TOV112D [4]): induced to detectable levels
induction of phos-histone H2Ax upon treatment (Panc1 [5]): no detectable induction
induction of phospho-histone H2Ax (MDA-435): 6.5 fold
induction of phospho-histone H2Ax (LNCap [6]): 2.2 fold
induction of phospho-histone H2Ax (difference in OD values) (AsPc1 [7]): 1 fold
induction of phospho-histone H2Ax (difference in OD values) (SNB75 [8]): 1 fold
phospho-histone H2Ax expression upon treatment (A2780 [9]): induced to detectable levels
induction of phospho-histone H2Ax (MiaPaca [10]): 2.3 fold
induction of phospho-histone H2Ax (DLD-1 [11]): 4.3 fold
induction of phospho-histone H2Ax (difference in OD values) (HT29 [12]): 1 fold
induction of phospho-histone H2Ax (difference in OD values) (DU145 [13]): 1 fold
induction of phospho-histone H2Ax (difference in OD values) (T47D [14]): 1 fold
phospho-histone H2Ax expression upon treatment (MCF-7): induced to detectable levels
IC50 (SKOV3 [15]; Homo sapiens, SK-OV-3, 336 h, 14 days, read-out: Lonafarnib IC50): 2000 nM
Cells designated sensitive (S) or resistant (R) to lonafarnib (SKOV3 [15]): (R)
Cells designated sensitive (S) or resistant (R) to lonafarnib (Colo205 [16]): (S)
IC50 (Colo205 [16]; Homo sapiens, COLO 205, 336 h, 14 days, read-out: Lonafarnib IC50): 330 nM
IC50 (SNB19 [17]; Homo sapiens, SNB-19, 336 h, 14 days, read-out: Lonafarnib IC50): 230 nM
Cells designated sensitive (S) or resistant (R) to lonafarnib (SNB19 [17]): (S)
IC50 (TOV112D [18]; [29]): 100 nM
Cells designated sensitive (S) or resistant (R) to lonafarnib (TOV112D [18]): (S)
IC50 (Panc1 [19]; Homo sapiens, PANC-1, 336 h, 14 days, read-out: Lonafarnib IC50): 440 nM
Cells designated sensitive (S) or resistant (R) to lonafarnib (Panc1 [19]): (S)
IC50 (LNCap [20]; [29]): 10 nM
Cells designated sensitive (S) or resistant (R) to lonafarnib (LNCap [20]): (S)
Cells designated sensitive (S) or resistant (R) to lonafarnib (AsPc1 [21]): (R)
IC50 (AsPc1 [21]; [29]): 1000 nM
IC50 (SNB75 [22]; Homo sapiens, SNB-75, 336 h, 14 days, read-out: Lonafarnib IC50): > 3000 nM
Cells designated sensitive (S) or resistant (R) to lonafarnib (SNB75 [22]): (R)
Cells designated sensitive (S) or resistant (R) to lonafarnib (A2780 [23]): (S)
IC50 (A2780 [23]; [29]): 80 nM
IC50 (MiaPaca [24]; Homo sapiens, MIA PaCa-2, 336 h, 14 days, read-out: Lonafarnib IC50): 240 nM
Cells designated sensitive (S) or resistant (R) to lonafarnib (MiaPaca [24]): (S)
Cells designated sensitive (S) or resistant (R) to lonafarnib (DLD-1 [25]): (S)
IC50 (DLD-1 [25]; [29]): 320 nM
Cells designated sensitive (S) or resistant (R) to lonafarnib (HT29 [26]): (R)
IC50 (HT29 [26]; Homo sapiens, HT-29, 336 h, 14 days, read-out: Lonafarnib IC50): 940 nM
IC50 (MDA435; 336 h, 14 days, read-out: Lonafarnib IC50): 350 nM
Cells designated sensitive (S) or resistant (R) to lonafarnib (MDA435): (S)
Cells designated sensitive (S) or resistant (R) to lonafarnib (DU145 [27]): (R)
IC50 (DU145 [27]; Homo sapiens, DU-145, 336 h, 14 days, read-out: Lonafarnib IC50): 1600 nM
IC50 (T47D [28]; [29]): 1800 nM
Cells designated sensitive (S) or resistant (R) to lonafarnib (T47D [28]): (R)
